Entries after “also recorded” stand apart in the source; their conditions may differ. Where two headings read alike, the source gives them in different places.
Columns and labels:
[1] = high-fat breakfast vs fasting, P < 0.001; cited from earlier work
[2] = Adverse events and ECG; assay type: in vivo, human
[3] = highly soluble, highly permeable class; cited from earlier work
[4] = administered on days 1 and 4 of a weekly schedule; cited from earlier work
[5] = fasting state, two other phase 1 studies, CV 56%; cited from earlier work
[6] = system: advanced solid tumors; test: Tumor response by RECIST version 1.0; assay type: in vivo, human
[7] = assay type: in vivo, human; settings: 20 mg oral
[8] = Adverse events, laboratory abnormalities and ECG; assay type: in vivo, human; settings: continual treatment phase, 45 mg
[9] = 20 mg, all patients (n = 36), any grade
[10] = 20 mg, high-fat breakfast (n = 36), any grade
[11] = 20 mg, high-fat breakfast, any grade
[12] = 20 mg, normal breakfast (n = 34), any grade
[13] = 20 mg, normal breakfast, any grade
[14] = 20 mg, overnight fast (n = 34), any grade
[15] = food-effect phase, 20 mg, N = 36, Grade 3/4, regardless of study drug relationship
[16] = food-effect phase, 20 mg, N = 36, any grade, regardless of study drug relationship
[17] = food-effect phase, 20 mg, any grade
[18] = N = 29, Grade 3/4, regardless of study drug relationship
[19] = N = 29, any grade, regardless of study drug relationship

Structure (SMILES): O=C(CCCCCCC(=O)Nc1ccccc1)NO [vorinostat]
- delay in Tmax by food [1]: 2.5 h

Structure (SMILES): Cc1[nH]c2ccccc2c1CCNCc1ccc(/C=C/C(=O)NO)cc1 [panobinostat, Panobinostat]
- Panobinostat-related fatigue [2, 9]: 16 (44.4) n (%)
- Panobinostat-related nausea [2, 9]: 11 (30.6) n (%)
- Panobinostat-related vomiting [2, 9]: 7 (19.4) n (%)
- drug-related diarrhea, frequency ([2]; 20 mg, fasting, any grade): 5.9%
- drug-related nausea, frequency ([2]; 20 mg, fasting, any grade): 14.7%
- drug-related vomiting, frequency ([2]; 20 mg, fasting, any grade): 14.7%
- Panobinostat-related fatigue [2, 10]: 5 (13.9) n (%)
- Panobinostat-related nausea [2, 10]: 3 (8.3) n (%)
- Panobinostat-related vomiting [2, 10]: 1 (2.8) n (%)
- drug-related diarrhea, frequency [2, 11]: 0%
- drug-related fatigue, frequency [2, 11]: 13.9%
- drug-related nausea, frequency [2, 11]: 8.3%
- drug-related vomiting, frequency [2, 11]: 2.8%
- Panobinostat-related fatigue [2, 12]: 10 (29.4) n (%)
- Panobinostat-related nausea [2, 12]: 8 (23.5) n (%)
- Panobinostat-related vomiting [2, 12]: 5 (14.7) n (%)
- drug-related diarrhea, frequency [2, 13]: 8.8%
- drug-related fatigue, frequency [2, 13]: 29.4%
- drug-related nausea, frequency [2, 13]: 23.5%
- drug-related vomiting, frequency [2, 13]: 14.7%
- Panobinostat-related fatigue [2, 14]: 1 (2.9) n (%)
- Panobinostat-related nausea [2, 14]: 5 (14.7) n (%)
- Panobinostat-related vomiting [2, 14]: 5 (14.7) n (%)
- drug-related fatigue, frequency ([2]; 20 mg, overnight fast, any grade): 2.9%
- patients with SAEs ([2]; food-effect phase, 20 mg): seven
- reported grade 3 or 4 AEs ([2]; food-effect phase, 20 mg): eight
- QTcF >480 ms or >60 ms increase from baseline ([2]; food-effect phase, 20 mg, 12-lead ECG): no QTcF >480 ms or >60 ms increase from baseline was observed
- Abdominal pain [2, 15]: 0 (0) n (%)
- Constipation [2, 15]: 0 (0) n (%)
- Diarrhea [2, 15]: 1 (2.8) n (%)
- Fatigue [2, 15]: 3 (8.3) n (%)
- Headache [2, 15]: 0 (0) n (%)
- Nausea [2, 15]: 2 (5.6) n (%)
- Pyrexia [2, 15]: 0 (0) n (%)
- Thrombocytopenia [2, 15]: 0 (0) n (%)
- Total adverse events [2, 15]: 8 (22.2) n (%)
- Vomiting [2, 15]: 2 (5.6) n (%)
- Abdominal pain [2, 16]: 5 (13.9) n (%)
- Constipation [2, 16]: 7 (19.4) n (%)
- Diarrhea [2, 16]: 7 (19.4) n (%)
- Fatigue [2, 16]: 18 (50.0) n (%)
- Headache [2, 16]: 6 (16.7) n (%)
- Nausea [2, 16]: 15 (41.7) n (%)
- Pyrexia [2, 16]: 5 (13.9) n (%)
- Thrombocytopenia [2, 16]: 5 (13.9) n (%)
- Total adverse events [2, 16]: 34 (94.4) n (%)
- Vomiting [2, 16]: 10 (27.8) n (%)
- Fatigue, frequency [2, 17]: 50%
- Nausea, frequency [2, 17]: 41.7%
- Thrombocytopenia, frequency [2, 17]: 13.9%
- Vomiting, frequency [2, 17]: 27.8%
- study-drug related SAEs ([2]; food-effect phase, 20 mg, grade 3 fatigue and grade 3 vomiting): two
- patients discontinued due to adverse events ([2]; food-effect phase, grade 3 fatigue and nausea/vomiting following a normal breakfast): one
- Biopharmaceutics Classification System class [3]: Class I like
- accumulation [4]: did not accumulate
- mean AUC0–∞ [5]: 183 ng·h/mL
- progressive disease, share of patients ([6]; N = 36, RECIST): 58.3%
- partial response, share of patients ([6]; N = 36, best response, RECIST): 2.8%
- stable disease, share of patients ([6]; N = 36, best response, RECIST): 16.7%
- effect of prandial state on mean elimination half-life ([7]; fasting vs high-fat vs normal breakfast): not altered; also recorded: unaltered
- reduction of systemic exposure following food ([7]; food vs fasting): 14–16%
- interpatient variability of exposure (coefficient of variation) ([7]; with or without food): 59%
- Cmax reduction ([7]; high-fat breakfast vs fasting): 44%
- Tmax, median difference (range) ([7]; high-fat breakfast/fasting): 2.48 (–2.00 to 7.02) h
- AUC(0-inf) ([7]; human, plasma, po, 20 mg, AUC0–∞, mean (CV, %), fasting (n = 33)): 176 ng·h/mL
- Cmax ([7]; human, plasma, po, 20 mg, Cmax, mean (CV, %), fasting (n = 33)): 23 ng/mL
- Tmax ([7]; human, plasma, po, 20 mg, Tmax, median (range), fasting (n = 33)): 1.5 h
- half-life ([7]; human, plasma, po, 20 mg, t1/2, mean (CV, %), fasting (n = 33)): 870 min
- Cmax reduction ([7]; normal breakfast vs fasting): 36%
- Tmax, median difference (range) ([7]; normal breakfast/fasting): 1.45 (–2.50 to 2.02) h
- Fatigue, overall frequency [8]: 48.3%
- Nausea, overall frequency [8]: 37%
- Vomiting, overall frequency [8]: 31.0%
- frequency of grade 3 and 4 AEs [8]: 65.5%
- grade 3/4 biochemical abnormality: hypophosphatemia [8]: 10.3%
- grade 3/4 newly occurring or worsened hematologic laboratory abnormality: decreased platelet count [8]: 44.8%
- Abdominal pain [8, 18]: 1 (3.4) n (%)
- Anemia [8, 18]: 1 (3.4) n (%)
- Anorexia [8, 18]: 0 (0.0) n (%)
- Constipation [8, 18]: 0 (0.0) n (%)
- Decreased platelet count [8, 18]: 3 (10.3) n (%)
- Diarrhea [8, 18]: 1 (3.4) n (%)
- Dyspnea [8, 18]: 0 (0.0) n (%)
- Fatigue [8, 18]: 5 (17.2) n (%)
- Headache [8, 18]: 0 (0.0) n (%)
- Nausea [8, 18]: 1 (3.4) n (%)
- Pyrexia [8, 18]: 0 (0.0) n (%)
- Thrombocytopenia [8, 18]: 11 (37.9) n (%)
- Total adverse events [8, 18]: 19 (65.5) n (%)
- Vomiting [8, 18]: 2 (6.9) n (%)
- Abdominal pain [8, 19]: 6 (20.7) n (%)
- Anemia [8, 19]: 5 (17.2) n (%)
- Anorexia [8, 19]: 10 (34.5) n (%)
- Constipation [8, 19]: 3 (10.3) n (%)
- Decreased platelet count [8, 19]: 6 (20.7) n (%)
- Diarrhea [8, 19]: 8 (27.6) n (%)
- Dyspnea [8, 19]: 7 (24.1) n (%)
- Fatigue [8, 19]: 14 (48.3) n (%)
- Headache [8, 19]: 5 (17.2) n (%)
- Nausea [8, 19]: 11 (37.9) n (%)
- Pyrexia [8, 19]: 3 (10.3) n (%)
- Thrombocytopenia [8, 19]: 15 (51.7) n (%)
- Total adverse events [8, 19]: 26 (89.7) n (%)
- Vomiting [8, 19]: 9 (31.0) n (%)
- Thrombocytopenia, frequency ([8]; any grade): 51.7%
- Thrombocytopenia, frequency ([8]; grade 3/4): 37.9%
- patients with QTc-interval abnormalities ([8]; QTcF >500 ms and/or increase >60 ms from baseline): two

— paper PMC4491112 (Cancer chemotherapy and pharmacology, 2011)
